Test results: the NIST ThermoML archive (doi:10.1016/j.tca.2016.09.007)
± gives the expanded uncertainty stated by the source.

Conditions: Crystal; DTA

O=C1OCCO1 [ethylene carbonate]
Normal melting temperature: 38.00 ± 1 °C
